Measurements: patent US11713338B2, “Cyclic peptides multimers targeting α-4-β-7 integrin” (priority 2016, dated 2023)

These compounds were tested against T1, integrin α4β7 (RPMI8866 human cells adhering to MAdCAM-1) (Homo sapiens, UniProt P13612+P26010) (assay: Integrin α4β7-MAdCAM cell adhesion assay (RPMI8866 cells)). Conditions: RPMI8866 cells adhering to MAdCAM; read-out: RPMI8866 Adhesion α4β7/MAdCAM IC50.
T1 construct: RMP18866 cells, which express integrin α4β7; host or cells: RPMI8866
T1 sequence (P13612 34-1032): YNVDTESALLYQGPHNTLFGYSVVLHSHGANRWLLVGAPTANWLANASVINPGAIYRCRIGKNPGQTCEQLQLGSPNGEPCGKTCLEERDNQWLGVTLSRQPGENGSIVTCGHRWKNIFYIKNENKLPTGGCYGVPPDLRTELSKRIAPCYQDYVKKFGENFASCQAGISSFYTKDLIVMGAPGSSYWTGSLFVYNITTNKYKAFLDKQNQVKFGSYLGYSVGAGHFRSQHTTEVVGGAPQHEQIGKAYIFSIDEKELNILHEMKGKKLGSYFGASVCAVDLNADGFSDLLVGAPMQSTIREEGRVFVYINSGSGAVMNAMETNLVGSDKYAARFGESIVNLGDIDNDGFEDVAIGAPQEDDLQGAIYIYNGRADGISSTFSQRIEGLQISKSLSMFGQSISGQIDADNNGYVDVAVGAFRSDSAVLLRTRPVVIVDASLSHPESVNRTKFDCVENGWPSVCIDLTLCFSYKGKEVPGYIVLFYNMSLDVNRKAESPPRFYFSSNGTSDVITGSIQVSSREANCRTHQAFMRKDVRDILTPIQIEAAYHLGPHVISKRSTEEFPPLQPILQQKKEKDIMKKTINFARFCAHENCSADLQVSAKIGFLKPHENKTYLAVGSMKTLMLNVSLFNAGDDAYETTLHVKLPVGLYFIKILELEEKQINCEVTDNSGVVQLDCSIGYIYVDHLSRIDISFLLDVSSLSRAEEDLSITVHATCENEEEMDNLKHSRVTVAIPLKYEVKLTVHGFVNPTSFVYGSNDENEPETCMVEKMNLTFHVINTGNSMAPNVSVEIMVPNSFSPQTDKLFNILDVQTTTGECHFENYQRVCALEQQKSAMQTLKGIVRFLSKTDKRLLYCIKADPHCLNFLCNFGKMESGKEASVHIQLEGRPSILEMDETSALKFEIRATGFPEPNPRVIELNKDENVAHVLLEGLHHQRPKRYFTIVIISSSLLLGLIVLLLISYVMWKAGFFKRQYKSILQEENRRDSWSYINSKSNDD
T1 sequence (P26010 20-798): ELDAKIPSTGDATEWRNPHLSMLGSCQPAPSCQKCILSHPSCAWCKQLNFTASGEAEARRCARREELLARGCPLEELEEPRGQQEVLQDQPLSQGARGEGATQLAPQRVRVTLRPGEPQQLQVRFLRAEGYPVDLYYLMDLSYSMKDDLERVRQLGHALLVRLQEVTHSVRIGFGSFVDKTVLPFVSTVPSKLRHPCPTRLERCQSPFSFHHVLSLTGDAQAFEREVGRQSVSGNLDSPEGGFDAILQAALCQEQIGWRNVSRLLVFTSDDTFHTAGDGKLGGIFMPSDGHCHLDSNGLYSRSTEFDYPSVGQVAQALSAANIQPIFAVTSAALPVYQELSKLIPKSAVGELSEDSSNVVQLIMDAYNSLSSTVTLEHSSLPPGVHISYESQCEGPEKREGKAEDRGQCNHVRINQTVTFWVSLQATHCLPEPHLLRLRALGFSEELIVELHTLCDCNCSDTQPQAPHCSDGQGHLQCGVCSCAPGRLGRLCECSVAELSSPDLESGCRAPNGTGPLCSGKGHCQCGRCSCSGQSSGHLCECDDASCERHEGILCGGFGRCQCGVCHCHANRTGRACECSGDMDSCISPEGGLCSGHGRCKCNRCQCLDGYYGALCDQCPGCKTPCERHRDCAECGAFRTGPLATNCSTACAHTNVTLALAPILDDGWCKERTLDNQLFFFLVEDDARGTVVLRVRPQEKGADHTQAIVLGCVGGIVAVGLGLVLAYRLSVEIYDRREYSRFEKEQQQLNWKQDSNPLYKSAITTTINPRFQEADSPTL
Assay type: cell-based
In short: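 Adhesion was read by calcein fluorescence. RPMI8866 cells were labelled at 10 million cells/ml with […] calcein (37° C., 30 min) and washed twice in PBS before reading. Dose-response values were corrected by subtracting cell-free control well fluorescence.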

| SMILES | IC50 [nM] |
| --- | --- |
| CC(C)C[C@@H]1NC(=O)c2ccc(-c3ccc(N4CCN(C(=O)c5ccccc5-c5ccccc5C(=O)N5CCN(c6ccc(-c7ccc8cc7CNC(=O)[C@@H]7CCCN7[C@H](C(=O)NC(C)(C)C)[C@H](C)NC(=O)[C@H]([C@@H](C)O)NC(=O)[C@H](CC(=O)O)NC(=O)[C@H](CC(C)C)NC8=O)cc6)CC5)CC4)cc3)c(c2)CNC(=O)[C@@H]2CCCN2[C@H](C(=O)NC(C)(C)C)[C@H](C)NC(=O)[C@H]([C@@H](C)O)NC(=O)[C@H](CC(=O)O)NC1=O [Compound 517] | 10 |
| CC(C)C[C@@H]1NC(=O)c2ccc(-c3ccc(N4CCN(Cc5ccc(CN6CCN(c7ccc(-c8ccc9cc8CNC(=O)[C@@H]8CCCN8[C@H](C(=O)NC(C)(C)C)[C@H](C)NC(=O)[C@H]([C@@H](C)O)NC(=O)[C@H](CC(=O)O)NC(=O)[C@H](CC(C)C)NC9=O)cc7)CC6)cc5)CC4)cc3)c(c2)CNC(=O)[C@@H]2CCCN2[C@H](C(=O)NC(C)(C)C)[C@H](C)NC(=O)[C@H]([C@@H](C)O)NC(=O)[C@H](CC(=O)O)NC1=O [Compound 500] | 32 |
| CC(C)C[C@@H]1NC(=O)c2ccc(-c3ccc(N4CCN(C(=O)c5nccnc5C(=O)N5CCN(c6ccc(-c7ccc8cc7CNC(=O)[C@@H]7CCCN7[C@H](C(=O)NC(C)(C)C)[C@H](C)NC(=O)[C@H]([C@@H](C)O)NC(=O)[C@H](CC(=O)O)NC(=O)[C@H](CC(C)C)NC8=O)cc6)CC5)CC4)cc3)c(c2)CNC(=O)[C@@H]2CCCN2[C@H](C(=O)NC(C)(C)C)[C@H](C)NC(=O)[C@H]([C@@H](C)O)NC(=O)[C@H](CC(=O)O)NC1=O [Compound 467] | 43 |
| CC(C)C[C@@H]1NC(=O)c2ccc(-c3ccc(N4CCN(C(=O)C5(C(=O)N6CCN(c7ccc(-c8ccc9cc8CNC(=O)[C@@H]8CCCN8[C@H](C(=O)NC(C)(C)C)[C@H](C)NC(=O)[C@H]([C@@H](C)O)NC(=O)[C@H](CC(=O)O)NC(=O)[C@H](CC(C)C)NC9=O)cc7)CC6)Cc6ccccc6C5)CC4)cc3)c(c2)CNC(=O)[C@@H]2CCCN2[C@H](C(=O)NC(C)(C)C)[C@H](C)NC(=O)[C@H]([C@@H](C)O)NC(=O)[C@H](CC(=O)O)NC1=O [Compound 461] | 39 |
| CC(C)C[C@@H]1NC(=O)c2ccc(-c3ccc(N4CCN(C(=O)c5cc(F)ccc5-c5ccc(F)cc5C(=O)N5CCN(c6ccc(-c7ccc8cc7CNC(=O)[C@@H]7CCCN7[C@H](C(=O)NC(C)(C)C)[C@H](C)NC(=O)[C@H]([C@@H](C)O)NC(=O)[C@H](CC(=O)O)NC(=O)[C@H](CC(C)C)NC8=O)cc6)CC5)CC4)cc3)c(c2)CNC(=O)[C@@H]2CCCN2[C@H](C(=O)NC(C)(C)C)[C@H](C)NC(=O)[C@H]([C@@H](C)O)NC(=O)[C@H](CC(=O)O)NC1=O [Compound 475] | 18 |

Same assay, conditions: RPMI8866 cells; read-out: IC50 in the RPMI8866 cell adhesion assay

| SMILES | IC50 [nM] |
| --- | --- |
| CC(C)C[C@@H]1NC(=O)c2ccc(-c3ccc(N4CCN(C(=O)c5ccccc5-c5ccccc5C(=O)N5CCN(c6ccc(-c7ccc8cc7CNC(=O)[C@@H]7CCCN7[C@H](C(=O)NC(C)(C)C)[C@H](C)NC(=O)[C@H]([C@@H](C)O)NC(=O)[C@H](CC(=O)O)NC(=O)[C@H](CC(C)C)NC8=O)cc6)CC5)CC4)cc3)c(c2)CNC(=O)[C@@H]2CCCN2[C@H](C(=O)NC(C)(C)C)[C@H](C)NC(=O)[C@H]([C@@H](C)O)NC(=O)[C@H](CC(=O)O)NC1=O [Compound 517] | 9.9 |
